Drawing on patent US20250282799A1, “SUBSTITUTED PYRIDO[4,3-d]PYRIMIDINES AS KRAS MODULATORS” (Alterome Therapeutics, Inc., priority 2023, published 2025), this text covers IC50 for 14 molecules.

This assay concerns KRAS G12V dependent lung adenocarcinoma cell line, NCI-H441. Kind of assay: Cellular pERK (Thr202/Tyr204) FRET/HTRF assay. Type of assay: cell-based. As to conditions: Homo sapiens, NCI-H441, cellular pERK (Thr202/Tyr204) HTRF, NCI-H441 cells. In a few lines: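 NCI-H441, overnight plating → cpd 1 hr, 37 °C/5% CO2; DMSO neg ctrl. Lyse (phosphatase inhibitors), add donor/acceptor Abs, RT incubation, HTRF read. IC50 by curve fit.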
A general note: Time-resolved FRET reads energy transfer from a long-lived donor to a nearby acceptor.

Regarding `[2H]C([2H])(F)Oc1c(F)cc(F)c2cccc(-c3ncc4c(N5CCOC[C@H]6[C@H](F)[C@H]65)nc(OC([2H])([2H])[C@@]56CCCN5C[C@H](F)C6)nc4c3F)c12` [Example 151, (1S,7S,8S)-2-(7-(5,7-difluoro-8-(fluoromethoxy-d2)naphthalen-1-yl)-8-fluoro-2-(((2R,7aS)-2-fluorotetrahydro-1H-pyrrolizin-7a(5H)-yl)methoxy-d2)pyrido[4,3-d]pyrimidin-4-yl)-8-fluoro-5-oxa-2-azabicyclo[5.1.0]octane], the IC50 (usually the concentration at which inhibition is half-maximal) was less than 50 nM.

In the case of `[2H]C([2H])(Oc1nc(N2CCOC[C@H]3[C@H](F)[C@H]32)c2cnc(-c3nc(N)cc4ccc(F)c(Cl)c34)c(F)c2n1)[C@@]12CCCN1C[C@H](F)C2` [Example 152, 8-chloro-7-fluoro-1-(8-fluoro-4-((1S,7S,8S)-8-fluoro-5-oxa-2-azabicyclo[5.1.0]octan-2-yl)-2-(((2R,7aS)-2-fluorotetrahydro-1H-pyrrolizin-7a(5H)-yl)methoxy-d2)pyrido[4,3-d]pyrimidin-7-yl)isoquinolin-3-amine], the IC50 lay within 50 to 500 nM.

Turning to `[2H]C([2H])(Oc1nc(N2CCCC[C@H]3[C@H](F)[C@H]32)c2cnc(-c3nc(N)cc4ccc(F)c(Cl)c34)c(F)c2n1)[C@@]12CCCN1C[C@H](F)C2` [Example 153, 8-chloro-7-fluoro-1-(8-fluoro-4-((1S,7R,8S)-8-fluoro-2-azabicyclo[5.1.0]octan-2-yl)-2-(((2R,7aS)-2-fluorotetrahydro-1H-pyrrolizin-7a(5H)-yl)methoxy-d2)pyrido[4,3-d]pyrimidin-7-yl)isoquinolin-3-amine], the IC50 lay in the range of 50 to 500 nM.

For `[2H]C([2H])(Oc1nc(N2CCOC[C@H]3[C@H](F)[C@H]32)c2cnc(-c3nc(N)cc4ccc(F)c(C#C)c34)c(F)c2n1)[C@@]12CCCN1C[C@H](F)C2` [Example 154], the IC50 is less than 50 nM.

Turning to `C#Cc1c(F)ccc2cc(N)cc(-c3ncc4c(N5CCOC[C@H]6[C@H](F)[C@H]65)nc(OC[C@@]56CCCN5C/C(=C\F)C6)nc4c3F)c12` [Example 155, 5-Ethynyl-6-fluoro-4-(8-fluoro-4-((1S,7S,8S)-8-fluoro-5-oxa-2-azabicyclo[5.1.0]octan-2-yl)-2-(((S,Z)-2-(fluoromethylene)tetrahydro-1H-pyrrolizin-7a(5H)-yl)methoxy)pyrido[4,3-d]pyrimidin-7-yl)naphthalen-2-amine], the 50% inhibitory concentration (IC50) is less than 50 nM.

Turning to `[2H]C([2H])(F)Oc1c(F)ccc2cccc(-c3ncc4c(N5CCOC[C@H]6[C@H](F)[C@H]65)nc(OC[C@@]56CCCN5C/C(=C/F)C6)nc4c3F)c12` [Example 156, (1S,7S,8S)-8-fluoro-2-(8-fluoro-7-(7-fluoro-8-(fluoromethoxy-d2)naphthalen-1-yl)-2-(((S,E)-2-(fluoromethylene)tetrahydro-1H-pyrrolizin-7a(5H)-yl)methoxy)pyrido[4,3-d]pyrimidin-4-yl)-5-oxa-2-azabicyclo[5.1.0]octane], the IC50 was less than 50 nM.

`[2H]C([2H])(F)Oc1c(F)ccc2cccc(-c3ncc4c(N5CCOC[C@H]6[C@H](F)[C@H]65)nc(OC[C@@]56CCCN5C/C(=C\F)C6)nc4c3F)c12` [Example 157, (1S,7S,8S)-8-fluoro-2-(8-fluoro-7-(7-fluoro-8-(fluoromethoxy-d2)naphthalen-1-yl)-2-(((S,Z)-2-(fluoromethylene)tetrahydro-1H-pyrrolizin-7a(5H)-yl)methoxy)pyrido[4,3-d]pyrimidin-4-yl)-5-oxa-2-azabicyclo[5.1.0]octane] had an IC50 of less than 50 nM.

Molecule `C#Cc1c(F)ccc2cc(N)cc(-c3ncc4c(N5CCOC[C@H]6[C@H](F)[C@H]65)nc(OC[C@@]56CCCN5CC(=C)C6)nc4c3F)c12` [Example 158, 5-Ethynyl-6-fluoro-4-(8-fluoro-4-((1S,7S,8S)-8-fluoro-5-oxa-2-azabicyclo[5.1.0]octan-2-yl)-2-(((S)-2-methylenetetrahydro-1H-pyrrolizin-7a(5H)-yl)methoxy)pyrido[4,3-d]pyrimidin-7-yl)naphthalen-2-amine] registered an IC50 of less than 50 nM.

For the molecule `[2H]C([2H])(Oc1nc(N2CCOC[C@H]3[C@H](F)[C@H]32)c2cc(Cl)c(-c3nc(N)cc(C)c3C(F)(F)F)c(F)c2n1)[C@@]12CCCN1C[C@H](F)C2` [Example 159, 6-(6-Chloro-8-fluoro-4-((1S,7S,8S)-8-fluoro-5-oxa-2-azabicyclo[5.1.0]octan-2-yl)-2-(((2R,7aS)-2-fluorotetrahydro-1H-pyrrolizin-7a(5H)-yl)methoxy-d2)quinazolin-7-yl)-4-methyl-5-(trifluoromethyl)pyridin-2-amine], the IC50 is less than 50 nM.

On to `[2H]C([2H])(Oc1nc(N2CCOC[C@@H]3[C@@H](F)[C@@H]32)c2cc(Cl)c(-c3nc(N)cc(C)c3C(F)(F)F)c(F)c2n1)[C@@]12CCCN1C[C@H](F)C2` [Example 160, 6-(6-chloro-8-fluoro-4-((1R,7R,8R)-8-fluoro-5-oxa-2-azabicyclo[5.1.0]octan-2-yl)-2-(((2R,7aS)-2-fluorotetrahydro-1H-pyrrolizin-7a(5H)-yl)methoxy-d2)quinazolin-7-yl)-4-methyl-5-(trifluoromethyl)pyridin-2-amine], for which the IC50 lay in the range of 50 to 500 nM.

As for `C#Cc1c(F)ccc2cc(N)cc(-c3ncc4c(N5CCOC[C@H]6[C@H](F)[C@H]65)nc(OC[C@@]56CCCN5C/C(=C/F)C6)nc4c3F)c12` [Example 161, 5-Ethynyl-6-fluoro-4-(8-fluoro-4-((1S,7S,8S)-8-fluoro-5-oxa-2-azabicyclo[5.1.0]octan-2-yl)-2-(((S,E)-2-(fluoromethylene)tetrahydro-1H-pyrrolizin-7a(5H)-yl)methoxy)pyrido[4,3-d]pyrimidin-7-yl)naphthalen-2-amine], the IC50 is less than 50 nM.

For the molecule `[2H]C([2H])(F)Oc1c(F)c(F)cc2cc(N)cc(-c3ncc4c(N5CCOC[C@H]6[C@H](F)[C@H]65)nc(OC[C@@]56CCCN5C/C(=C\F)C6)nc4c3F)c12` [Example 162, 6,7-Difluoro-4-(8-fluoro-4-((1S,7S,8S)-8-fluoro-5-oxa-2-azabicyclo[5.1.0]octan-2-yl)-2-(((S,Z)-2-(fluoromethylene)tetrahydro-1H-pyrrolizin-7a(5H)-yl)methoxy)pyrido[4,3-d]pyrimidin-7-yl)-5-(fluoromethoxy-d2)naphthalen-2-amine], the IC50 is less than 50 nM.

The molecule `[2H]C([2H])(Oc1nc(N2CCOC[C@H]3[C@H](F)[C@H]32)c2cc(F)c(-c3cc(N)cc(C4CC4)c3C(F)(F)F)c(F)c2n1)[C@@]12CCCN1C[C@H](F)C2` [Example 163, 3-cyclopropyl-5-(6,8-difluoro-4-((1S,7S,8S)-8-fluoro-5-oxa-2-azabicyclo[5.1.0]octan-2-yl)-2-(((2R,7aS)-2-fluorotetrahydro-1H-pyrrolizin-7a(5H)-yl)methoxy-d2)quinazolin-7-yl)-4-(trifluoromethyl)aniline] registered a 50% inhibitory concentration (IC50) of 500 to 10000 nM.

As to `[2H]C([2H])(Oc1nc(N2CCOC[C@@H]3[C@@H](F)[C@@H]32)c2cc(F)c(-c3cc(N)cc(C4CC4)c3C(F)(F)F)c(F)c2n1)[C@@]12CCCN1C[C@H](F)C2` [Example 164, 3-cyclopropyl-5-(6,8-difluoro-4-((1R,7R,8R)-8-fluoro-5-oxa-2-azabicyclo[5.1.0]octan-2-yl)-2-(((2R,7aS)-2-fluorotetrahydro-1H-pyrrolizin-7a(5H)-yl)methoxy-d2)quinazolin-7-yl)-4-(trifluoromethyl)aniline], the IC50 lay within 500 to 10000 nM.
